In patent US12281121B2, “N-containing heteroaryl derivative and pharmaceutical composition comprising same as active ingredient for prevention or treatment of cancer” (VORONOI Inc., priority 2019, dated 2025):

Key:
Assay in all cases: ScanMAX Kinase analysis panel (DiscoverX)
Assay type in all cases: binding
Conditions in all cases: read-out: adjusted percentage (% control)
[1] = biological target: T1, AMPK-alpha1 (Homo sapiens, UniProt Q13131)
T1 construct: purchased DiscoverX
Protocol: (§1) The following experiment was performed in order to evaluate the inhibitory activity of the compound according to the present invention against more enzymes. Specifically, for Examples 1 and 3 selected among the Example compounds of the present invention, the enzyme (kinase) selectivity was set to be measured by commissioning DiscoverX, and an experiment was conducted using a ScanMAX™ Kinase analysis panel. In this case, the concentration of the drug treated with the enzyme was set to 1 μM in DMSO, the adjusted percentage (% control) was determined in the same manner as in the following Equation 1, and the results are shown in the following Table 3. (Example compound−Positive control)/(Negative control−Positive control)×100 [Equation 1]
(§2) In addition, the enzyme selectivity of the present invention was determined to be active against the corresponding enzyme when the adjusted percentage was <35% (that is, less than 35%).

[2] = biological target: T2, SNARK (Homo sapiens, UniProt Q9H093)
T2 construct: purchased DiscoverX ScanMAX Kinase analysis panel
T2 sequence (Q9H093 whole entry): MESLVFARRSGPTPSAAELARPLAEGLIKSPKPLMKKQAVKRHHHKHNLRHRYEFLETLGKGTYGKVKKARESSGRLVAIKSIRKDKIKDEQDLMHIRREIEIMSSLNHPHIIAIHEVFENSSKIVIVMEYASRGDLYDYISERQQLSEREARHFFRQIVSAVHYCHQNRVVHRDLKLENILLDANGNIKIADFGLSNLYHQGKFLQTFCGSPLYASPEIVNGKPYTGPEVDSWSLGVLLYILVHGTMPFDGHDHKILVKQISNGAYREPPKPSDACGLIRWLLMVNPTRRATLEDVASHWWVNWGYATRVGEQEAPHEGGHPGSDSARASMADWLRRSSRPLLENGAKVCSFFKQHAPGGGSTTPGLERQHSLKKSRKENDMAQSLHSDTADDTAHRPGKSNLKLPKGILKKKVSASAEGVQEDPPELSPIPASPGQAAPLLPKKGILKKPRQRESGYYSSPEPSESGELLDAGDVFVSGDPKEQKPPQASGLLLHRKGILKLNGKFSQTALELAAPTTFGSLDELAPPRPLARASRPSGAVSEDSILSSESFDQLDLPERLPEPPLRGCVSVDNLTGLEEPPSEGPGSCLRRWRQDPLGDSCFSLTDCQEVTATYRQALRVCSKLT
Protocol: as §1, §2

[3] = biological target: T3, RIOK3 (Homo sapiens, UniProt O14730)
T3 construct: purchased DiscoverX ScanMAX Kinase analysis panel
Protocol: as §1, §2

[4] = biological target: T4, MERTK (Homo sapiens, UniProt Q12866)
T4 construct: purchased DiscoverX ScanMAX Kinase analysis panel
Protocol: as §1, §2

[5] = biological target: T5, SRC (Homo sapiens, UniProt P12931)
T5 construct: purchased DiscoverX ScanMAX Kinase analysis panel
Protocol: as §1, §2

[6] = biological target: T6, CSNK2A1 (Homo sapiens, UniProt P68400)
T6 construct: purchased DiscoverX
Protocol: as §1, §2

[7] = biological target: T7, FLT3(R834Q) (Homo sapiens, UniProt P36888, R834Q)
T7 construct: purchased DiscoverX ScanMAX Kinase analysis panel
Protocol: as §1, §2

[8] = biological target: T8, RET(V804M) (Homo sapiens, UniProt P07949, V804M)
T8 construct: purchased DiscoverX ScanMAX Kinase analysis panel
Protocol: as §1, §2

[9] = biological target: T9, ICK (Homo sapiens, UniProt Q9UPZ9)
T9 construct: purchased DiscoverX ScanMAX Kinase analysis panel
Protocol: as §1, §2

[10] = biological target: T10, DAPK3 (Homo sapiens, UniProt O43293)
T10 construct: purchased DiscoverX
Protocol: as §1, §2

[11] = biological target: T11, KIT(V559D) (Homo sapiens, UniProt P10721, V559D)
T11 construct: purchased DiscoverX ScanMAX Kinase analysis panel
T11 sequence (P10721 26-976 V559D): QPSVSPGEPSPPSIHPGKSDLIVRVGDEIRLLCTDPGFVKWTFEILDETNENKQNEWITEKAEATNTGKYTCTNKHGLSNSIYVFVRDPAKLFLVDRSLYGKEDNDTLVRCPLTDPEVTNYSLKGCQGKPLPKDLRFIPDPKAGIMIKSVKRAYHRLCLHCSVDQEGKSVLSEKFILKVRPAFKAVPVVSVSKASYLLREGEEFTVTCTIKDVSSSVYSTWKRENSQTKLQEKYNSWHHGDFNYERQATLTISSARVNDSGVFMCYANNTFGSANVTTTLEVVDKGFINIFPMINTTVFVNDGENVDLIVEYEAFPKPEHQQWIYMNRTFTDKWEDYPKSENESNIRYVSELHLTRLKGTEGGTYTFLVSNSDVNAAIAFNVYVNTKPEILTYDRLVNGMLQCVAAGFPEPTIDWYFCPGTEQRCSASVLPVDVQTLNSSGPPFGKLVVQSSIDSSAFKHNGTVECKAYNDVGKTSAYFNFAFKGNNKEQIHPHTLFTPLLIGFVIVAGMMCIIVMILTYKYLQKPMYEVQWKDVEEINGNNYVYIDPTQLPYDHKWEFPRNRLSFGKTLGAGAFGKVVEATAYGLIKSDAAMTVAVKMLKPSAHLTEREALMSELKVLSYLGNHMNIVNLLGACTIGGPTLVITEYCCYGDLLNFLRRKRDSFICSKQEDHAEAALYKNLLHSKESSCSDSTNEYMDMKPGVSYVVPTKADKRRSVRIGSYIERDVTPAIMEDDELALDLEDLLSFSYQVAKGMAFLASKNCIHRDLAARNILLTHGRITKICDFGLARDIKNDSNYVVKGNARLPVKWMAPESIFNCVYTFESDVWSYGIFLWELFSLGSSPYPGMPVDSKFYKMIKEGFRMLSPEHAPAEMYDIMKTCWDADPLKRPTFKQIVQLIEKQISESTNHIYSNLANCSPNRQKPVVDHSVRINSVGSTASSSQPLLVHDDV
Protocol: as §1, §2

[12] = biological target: T12, PLK4 (Homo sapiens, UniProt O00444)
T12 construct: purchased DiscoverX ScanMAX Kinase analysis panel
Protocol: as §1, §2

[13] = biological target: T13, TRKA (Homo sapiens, UniProt P04629)
T13 construct: purchased DiscoverX ScanMAX Kinase analysis panel
Protocol: as §1, §2

[14] = biological target: T14, BTK (Homo sapiens, UniProt Q06187)
T14 construct: purchased DiscoverX
Protocol: as §1, §2

[15] = biological target: T15, FLT3 (Homo sapiens, UniProt P36888)
T15 construct: purchased DiscoverX ScanMAX Kinase analysis panel
Protocol: as §1, §2

[16] = biological target: T16, TYK2(JH1domain-catalytic) (Homo sapiens, UniProt P29597)
T16 construct: TYK2(JH1domain-catalytic); purchased DiscoverX ScanMAX Kinase analysis panel
Protocol: as §1, §2

[17] = biological target: T17, RET(V804L) (Homo sapiens, UniProt P07949, V804L)
T17 construct: purchased DiscoverX ScanMAX Kinase analysis panel
Protocol: as §1, §2

[18] = biological target: T18, MEK5 (Homo sapiens, UniProt Q13163)
T18 construct: purchased DiscoverX ScanMAX Kinase analysis panel
T18 sequence (Q13163 whole entry): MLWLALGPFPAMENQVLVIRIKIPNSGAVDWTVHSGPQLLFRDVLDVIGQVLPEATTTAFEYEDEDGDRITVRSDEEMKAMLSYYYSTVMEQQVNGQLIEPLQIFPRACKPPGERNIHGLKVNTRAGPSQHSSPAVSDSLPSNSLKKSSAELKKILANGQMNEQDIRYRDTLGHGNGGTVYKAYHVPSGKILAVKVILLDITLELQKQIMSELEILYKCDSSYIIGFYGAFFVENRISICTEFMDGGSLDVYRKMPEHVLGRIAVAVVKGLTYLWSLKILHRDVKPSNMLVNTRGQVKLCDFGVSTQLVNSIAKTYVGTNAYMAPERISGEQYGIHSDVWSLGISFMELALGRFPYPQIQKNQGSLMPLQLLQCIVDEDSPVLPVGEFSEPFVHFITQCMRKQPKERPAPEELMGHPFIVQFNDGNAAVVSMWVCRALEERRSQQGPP
Protocol: as §1, §2

[19] = biological target: T19, JAK3(JH1domain-catalytic) (Homo sapiens, UniProt P52333)
T19 construct: JAK3 (JH1domain-catalytic); purchased DiscoverX ScanMAX Kinase analysis panel
Protocol: as §1, §2

[20] = biological target: T20, YES (Homo sapiens, UniProt P07947)
T20 construct: purchased DiscoverX ScanMAX Kinase analysis panel
Protocol: as §1, §2

[21] = biological target: T21, EGFR(L858R, T790M) (Homo sapiens, UniProt P00533, L858R/T790M)
T21 construct: purchased DiscoverX
T21 sequence (P00533 25-1210 T790M/L858R): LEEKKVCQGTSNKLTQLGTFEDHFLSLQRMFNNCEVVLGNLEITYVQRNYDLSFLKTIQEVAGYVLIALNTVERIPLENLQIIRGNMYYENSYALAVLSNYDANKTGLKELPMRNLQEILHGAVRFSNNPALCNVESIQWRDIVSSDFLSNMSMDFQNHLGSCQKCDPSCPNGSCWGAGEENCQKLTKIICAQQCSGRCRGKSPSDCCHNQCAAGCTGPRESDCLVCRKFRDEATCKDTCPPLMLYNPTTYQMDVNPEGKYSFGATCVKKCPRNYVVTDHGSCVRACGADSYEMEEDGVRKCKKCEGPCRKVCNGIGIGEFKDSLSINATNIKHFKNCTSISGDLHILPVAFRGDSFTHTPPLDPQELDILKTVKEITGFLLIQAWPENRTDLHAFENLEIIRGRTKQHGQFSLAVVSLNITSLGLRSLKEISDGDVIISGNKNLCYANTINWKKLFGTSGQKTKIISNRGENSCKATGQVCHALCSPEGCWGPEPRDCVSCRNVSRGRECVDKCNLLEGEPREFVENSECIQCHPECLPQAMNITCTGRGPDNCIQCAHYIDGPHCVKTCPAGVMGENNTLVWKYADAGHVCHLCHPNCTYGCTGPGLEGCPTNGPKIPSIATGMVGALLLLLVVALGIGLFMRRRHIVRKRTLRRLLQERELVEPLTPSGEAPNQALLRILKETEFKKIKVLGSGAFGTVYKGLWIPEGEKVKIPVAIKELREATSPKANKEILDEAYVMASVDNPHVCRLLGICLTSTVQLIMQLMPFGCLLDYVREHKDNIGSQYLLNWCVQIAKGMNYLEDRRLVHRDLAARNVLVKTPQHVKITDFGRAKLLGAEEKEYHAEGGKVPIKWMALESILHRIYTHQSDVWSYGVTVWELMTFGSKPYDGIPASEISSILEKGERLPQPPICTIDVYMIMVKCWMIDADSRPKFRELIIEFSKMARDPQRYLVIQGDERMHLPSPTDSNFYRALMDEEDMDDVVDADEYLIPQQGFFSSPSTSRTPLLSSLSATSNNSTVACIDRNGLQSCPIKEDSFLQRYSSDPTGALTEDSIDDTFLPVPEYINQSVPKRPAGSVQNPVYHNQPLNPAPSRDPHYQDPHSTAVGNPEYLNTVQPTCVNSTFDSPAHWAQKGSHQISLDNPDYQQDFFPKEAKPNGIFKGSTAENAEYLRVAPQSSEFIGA
Protocol: as §1, §2

[22] = biological target: T22, EPHB6 (Homo sapiens, UniProt O15197)
T22 construct: purchased DiscoverX ScanMAX Kinase analysis panel
T22 sequence (O15197 32-1021): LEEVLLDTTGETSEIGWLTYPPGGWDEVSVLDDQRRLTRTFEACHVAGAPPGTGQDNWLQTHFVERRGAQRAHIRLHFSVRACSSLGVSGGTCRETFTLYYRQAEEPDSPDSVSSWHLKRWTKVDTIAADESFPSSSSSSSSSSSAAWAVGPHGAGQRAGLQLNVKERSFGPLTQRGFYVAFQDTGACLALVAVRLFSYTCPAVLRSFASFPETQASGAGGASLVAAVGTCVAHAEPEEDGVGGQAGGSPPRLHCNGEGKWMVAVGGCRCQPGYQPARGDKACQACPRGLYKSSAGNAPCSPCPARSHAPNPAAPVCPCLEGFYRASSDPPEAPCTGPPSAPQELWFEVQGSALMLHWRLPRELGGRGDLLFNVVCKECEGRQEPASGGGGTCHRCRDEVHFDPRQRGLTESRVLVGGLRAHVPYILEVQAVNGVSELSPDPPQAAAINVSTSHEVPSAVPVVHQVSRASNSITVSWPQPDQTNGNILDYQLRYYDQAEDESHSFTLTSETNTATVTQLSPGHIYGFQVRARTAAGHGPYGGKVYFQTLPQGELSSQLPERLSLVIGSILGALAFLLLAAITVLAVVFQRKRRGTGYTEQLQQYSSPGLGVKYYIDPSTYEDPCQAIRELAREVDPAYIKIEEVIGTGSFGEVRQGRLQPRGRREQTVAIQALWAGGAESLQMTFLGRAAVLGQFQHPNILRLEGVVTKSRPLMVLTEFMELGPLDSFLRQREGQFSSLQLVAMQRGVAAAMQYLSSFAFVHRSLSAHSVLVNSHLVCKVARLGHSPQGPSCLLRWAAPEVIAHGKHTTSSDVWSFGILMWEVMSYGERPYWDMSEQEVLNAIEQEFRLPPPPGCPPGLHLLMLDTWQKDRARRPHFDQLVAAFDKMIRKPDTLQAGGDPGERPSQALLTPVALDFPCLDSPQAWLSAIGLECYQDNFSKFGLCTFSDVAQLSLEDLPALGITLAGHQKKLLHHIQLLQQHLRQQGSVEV
Protocol: as §1, §2

[23] = biological target: T23, FLT3(D835H) (Homo sapiens, UniProt P36888, D835H)
T23 construct: purchased DiscoverX ScanMAX Kinase analysis panel
Protocol: as §1, §2

[24] = biological target: T24, ABL1(M351T)-phosphorylated (Homo sapiens, UniProt P00519, M351T)
T24 construct: purchased DiscoverX
Protocol: as §1, §2

[25] = biological target: T25, HCK (Homo sapiens, UniProt P08631)
T25 construct: purchased DiscoverX ScanMAX Kinase analysis panel
Protocol: as §1, §2

[26] = biological target: T26, ABL1(Y253F)-phosphorylated (Homo sapiens, UniProt P00519, Y253F)
T26 construct: purchased DiscoverX
Protocol: as §1, §2

[27] = biological target: T27, ABL1(H396P)-phosphorylated (Homo sapiens, UniProt P00519, H396P)
T27 construct: purchased DiscoverX
Protocol: as §1, §2

[28] = biological target: T28, BLK (Homo sapiens, UniProt P51451)
T28 construct: purchased DiscoverX
T28 sequence (P51451 whole entry): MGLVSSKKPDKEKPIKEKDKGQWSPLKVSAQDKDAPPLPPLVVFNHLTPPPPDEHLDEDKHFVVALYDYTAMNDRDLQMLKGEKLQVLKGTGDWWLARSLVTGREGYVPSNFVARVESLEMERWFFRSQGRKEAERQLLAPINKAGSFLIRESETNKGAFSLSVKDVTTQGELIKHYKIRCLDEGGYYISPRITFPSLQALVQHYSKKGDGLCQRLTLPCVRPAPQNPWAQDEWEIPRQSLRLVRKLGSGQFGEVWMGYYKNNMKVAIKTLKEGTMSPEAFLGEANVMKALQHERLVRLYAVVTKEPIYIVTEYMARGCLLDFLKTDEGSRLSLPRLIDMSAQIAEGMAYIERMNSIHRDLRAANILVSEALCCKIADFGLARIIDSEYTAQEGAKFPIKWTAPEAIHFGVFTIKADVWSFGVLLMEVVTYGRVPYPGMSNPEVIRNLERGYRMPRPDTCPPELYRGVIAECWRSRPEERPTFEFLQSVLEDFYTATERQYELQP
Protocol: as §1, §2

[29] = biological target: T29, MST1 (Homo sapiens, UniProt Q13043)
T29 construct: purchased DiscoverX ScanMAX Kinase analysis panel
Protocol: as §1, §2

[30] = biological target: T30, FLT3(N841I) (Homo sapiens, UniProt P36888, N841I)
T30 construct: purchased DiscoverX ScanMAX Kinase analysis panel
Protocol: as §1, §2

[31] = biological target: T31, JAK1(JH2domain-pseudokinase) (Homo sapiens, UniProt P23458)
T31 construct: JAK1(JH2domain-pseudokinase); purchased DiscoverX ScanMAX Kinase analysis panel
Protocol: as §1, §2

[32] = biological target: T32, ITK (Homo sapiens, UniProt Q08881)
T32 construct: purchased DiscoverX ScanMAX Kinase analysis panel
Protocol: as §1, §2

[33] = biological target: T33, MEK3 (Homo sapiens, UniProt P46734)
T33 construct: purchased DiscoverX ScanMAX Kinase analysis panel
T33 sequence (P46734 whole entry): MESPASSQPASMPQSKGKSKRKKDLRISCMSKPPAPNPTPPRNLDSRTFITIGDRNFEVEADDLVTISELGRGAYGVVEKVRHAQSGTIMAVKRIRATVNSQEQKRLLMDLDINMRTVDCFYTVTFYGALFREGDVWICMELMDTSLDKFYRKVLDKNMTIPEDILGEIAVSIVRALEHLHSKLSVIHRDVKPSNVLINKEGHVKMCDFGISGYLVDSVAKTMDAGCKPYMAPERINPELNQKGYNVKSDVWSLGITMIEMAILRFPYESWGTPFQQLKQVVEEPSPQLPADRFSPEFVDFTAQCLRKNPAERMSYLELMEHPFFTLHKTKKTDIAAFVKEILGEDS
Protocol: as §1, §2

[34] = biological target: T34, YSK4 (Homo sapiens, UniProt Q56UN5)
T34 construct: purchased DiscoverX ScanMAX Kinase analysis panel
Protocol: as §1, §2

[35] = biological target: T35, ABL1-phosphorylated (Homo sapiens, UniProt P00519)
T35 construct: purchased DiscoverX
Protocol: as §1, §2

| Compound | remaining binding at 1 µM [1] | remaining binding at 1 µM [2] | remaining binding at 1 µM [3] | remaining binding at 1 µM [4] | remaining binding at 1 µM [5] | remaining binding at 1 µM [6] | remaining binding at 1 µM [7] | remaining binding at 1 µM [8] | remaining binding at 1 µM [9] | remaining binding at 1 µM [10] | remaining binding at 1 µM [11] | remaining binding at 1 µM [12] | remaining binding at 1 µM [13] | remaining binding at 1 µM [14] | remaining binding at 1 µM [15] | remaining binding at 1 µM [16] | remaining binding at 1 µM [17] | remaining binding at 1 µM [18] | remaining binding at 1 µM [19] | remaining binding at 1 µM [20] | other results |
| --- | --- | --- | --- | --- | --- | --- | --- | --- | --- | --- | --- | --- | --- | --- | --- | --- | --- | --- | --- | --- | --- |
| COc1ccc(CN2C3CC2CN(c2ccc(-c4nc(Nc5cc(C)[nH]n5)c5occc5n4)cn2)C3)cn1 [Example 1, 2-(6-(6-((6-methoxypyridin-3-yl)methyl)-3,6-diazabicyclo[3.1.1]heptan-3-yl)pyridin-3-yl)-N-(5-methyl-1H-pyrazol-3-yl)furo[3,2-d]pyrimidin-4-amine] | 26% | 22% | 13% | 34% | 0.7% | 2.4% | 23% | 0% | 33% | 19% | 34% | 1.3% | 0% | 17% | 1.2% | 0.2% | 1.1% | 9.9% | 0.55% | 11% | remaining binding at 1 µM [21]: 6.9%; remaining binding at 1 µM [22]: 2.6%; remaining binding at 1 µM [23]: 6.7%; remaining binding at 1 µM [24]: 16%; remaining binding at 1 µM [25]: 4.1%; remaining binding at 1 µM [26]: 20%; remaining binding at 1 µM [27]: 28%; remaining binding at 1 µM [28]: 1.4%; remaining binding at 1 µM [29]: 25%; remaining binding at 1 µM [30]: 0%; remaining binding at 1 µM [31]: 21%; remaining binding at 1 µM [32]: 2%; remaining binding at 1 µM [33]: 27%; remaining binding at 1 µM [34]: 6.2%; remaining binding at 1 µM [35]: 30% |
| COc1ccc(CN2C3CC2CN(c2ccc(-c4nc(Nc5cc(C)[nH]n5)c5ccccc5n4)cn2)C3)cn1 [Example 3, 2-(6-(6-((6-methoxypyridin-3-yl)methyl)-3,6-diazabicyclo [3.1.1]heptan-3-yl)pyridin-3-yl)-N-(5-methyl-1H-pyrazol-3-yl)quinazolin-4-amine] | 33% | 17% | 30% | 6.2% | 0% | 1.5% | 9.1% | 0% | 28% | 34% | 4.2% | 1.2% | 0% | 16% | 0.55% | 5.3% | 0.4% | 2.2% | 1.9% | 3.8% | remaining binding at 1 µM [21]: 6.6%; remaining binding at 1 µM [22]: 4.8%; remaining binding at 1 µM [23]: 2.7%; remaining binding at 1 µM [24]: 15%; remaining binding at 1 µM [25]: 3.2%; remaining binding at 1 µM [26]: 21%; remaining binding at 1 µM [27]: 21%; remaining binding at 1 µM [28]: 0.05%; remaining binding at 1 µM [29]: 30%; remaining binding at 1 µM [30]: 0%; remaining binding at 1 µM [31]: 2.9%; remaining binding at 1 µM [32]: 1.6%; remaining binding at 1 µM [33]: 4.9%; remaining binding at 1 µM [34]: 5%; remaining binding at 1 µM [35]: 15% |
